In paper PMC12808100, “The non-catalytic DNA polymerase ε subunit is an NPF motif recognition protein” (Nature Communications, 2025):

Experiments:
[1] = system: endogenous proteins of Jurkat extract; assay: Single-point nHU-MS with biotinylated NPF motif peptide baits, proteome-wide; format: binding, human; settings: FigureS2 Volcano; prey FBXO3
Source text: To identify the partners of NPF motifs, we used the native holdup (nHU) assay that was recently developed by our team (Fig. 1B). The holdup approach has been extensively used to determine equilibrium dissociation constants of transient interactions mediated by PDZ and SH3 domains, 14-3-3, and human papilloma virus E6 proteins, and even nucleic acid-protein interactions[7],[30]–[35]. In the nHU experiments, a purified bait molecule, or a control compound, is immobilized on a resin at high concentration (typically 10 μM, or higher) and these resin stocks are subsequently mixed with dilute cell extracts. […] This liquid phase contains the unbound prey molecules at near binding equilibrium that can be quantified using selective and quantitative analytical approaches, such as mass spectrometry. Therefore, proteins that interact with the bait molecule will appear to be depleted in the solvent phase and by measuring its relative concentration compared to the control nHU experiment, the degree of binding (θ) can be determined that can be converted to apparent steady-state dissociation constants, according to:1 θ=1−Ifree/Itot=Cbait/Cbait+Kapp where Itot and Ifree are the measured total and bait-depleted equilibrium mass spectrometry total ion intensities of prey proteins, Cbait is the bait molecule concentration and Kapp is the apparent dissociation constant. […]

[2] = molecular target: His6-avi-MBP-tagged POLE2; assay: Single-point nHU-MS with recombinant His6-avi-MBP-POLE2 bait, Jurkat extract; format: binding, human; settings: significant apparent affinity of endogenous prey protein for POLE2 bait; single-point nHU-MS; Figure S11
Source text: So far, our study only focused on a few hand-picked NPF motifs and studied them as short synthetic peptides. However, many other proteins may be present in the proteome that could bind to POLE2 and their putative NPF motifs are embedded in their natural structures that can greatly affect their binding properties. To investigate interactions between POLE2 and intact, full length proteins proteome-wide, we used nHU-MS experiments with recombinant His6-avi-MBP-tagged POLE2 as bait and purified His6-avi-MBP as a control. Even though we are aware that this recombinant POLE2 may bind to NPF motifs with a somewhat altered affinity, we assumed that this would affect all NPF motif-mediated interactions equally, allowing an unbiased affinity ranking of all identified partners. Single point nHU measurements were performed at 26 μM POLE2 concentration and the recovered supernatant was measured by label free proteomic MS measurements (Fig. 3A, Supplementary Figs. 8A, 9, Supplementary Data 1).
Single-point nHU experiments with protein baits were carried out nearly identically with two key modifications. First, the resin saturation step was carried out by mixing 50 μl streptavidin resin with 0.5−1 ml 50 μM biotinylated protein solution and the mixture was incubated for 1.5 h at 4 °C with constant agitation. Second, instead of using estimated bait concentrations, we measured it experimentally. An extra aliquot of resin stock was prepared alongside the nHU samples that were identically processed that were used to eluate the immobilized proteins under harsh conditions, in order to experimentally quantify the Cbait by using densitometry of Coomassie stained SDS-PAGE that included a protein calibration series. For this, 50 μl bait-saturated resin aliquots were mixed with 200 μl 4x Laemmli Sample Buffer (120 mM Tris-HCl pH 7, 8% SDS, 100 mM DTT, 32% glycerol, 0.004% bromphenol blue, 1% β-mercaptoethanol), instead of cell extract. After 15 min incubation at 95 °C, these samples were analyzed by SDS-PAGE using protein calibration standard, made from recombinant MBP. Densitometry was carried out after Coomassie staining on raw Tif images by using Fiji ImageJ 1.53c and experimental bait concentration were determined by adjusting for molecular weight differences between MBP and MBP-POLE2 constructs.
Samples were digested overnight at 37 °C.

Work on TSETSK [SYNJ1] yielded a log2FC [1] of -0.5002 and a pKapp_sign [2] of 4.4418.
